Measurements taken from patent US6916484B1, “Aqueous pharmaceutical composition containing moxifloxacin or salts thereof” (Bayer Aktiengesellschaft, priority 1999, dated 2005).
Where a name gives a salt, the structure may show the parent alone.

Test: Saturation solubility of moxifloxacin hydrochloride in water
Assay type: physicochemical
Settings: aqueous solution, room temperature
Method: Accordingly, freshly prepared solutions of moxifloxacin with sugars and/or sugar alcohols have, even if they have relatively high iron contents, a sufficient stability against the formation of particles for the period of use of, preferably, up to 12 hours after preparation. Thus, the problem to be solved by the invention can also be overcome by iron-containing solutions for infusion which are used immediately after preparation. Here, it is expedient to use a process in which a pre-formed concentrated aqueous solution of moxifloxacin or a salt thereof and a pre-formed solution of the sugar and/or the sugar alcohols are mixed with one another. […] The concentrated aqueous solution of moxifloxacin id hydrochloride preferably contains from 0.4% (w/v) to 2.4% (w/v) of moxifloxacin (calculated as betaine). […] The active compound concentrate preferably comprises from 1.0 to 2.0% (w/v) of moxifloxacin (calculated as betaine), particularly preferably 2.0% (w/v) of moxifloxacin (calculated as betaine). […]

COc1c(N2C[C@@H]3CCCN[C@@H]3C2)c(F)cc2c(=O)c(C(=O)O)cn(C3CC3)c12 [moxifloxacin hydrochloride, 1-cyclopropyl-7-([S,S]-2,8-diazabicyclo[4.3.0]non-8-yl)-6-fluoro-1,4-dihydro-8-methoxy-4-oxo-3-quinolonecarboxylic acid]
saturation solubility: about 2.4 % (w/v)
